The values below come from patent US6391901B1, “Thrombin inhibitors” (Eli Lilly and Company, priority 1997, dated 2002).

Each structure is given as a SMILES string. Where a name gives a salt, the structure may show the parent alone.

A word on the melting point: it is the temperature, or range, at which the solid turns liquid. Regarding `COc1cc(Cc2c(-c3ccc(NS(=O)(=O)c4ccccc4)cc3)sc3cc(O)ccc23)ccc1CN1CCCC1` (as salt: oxalate) [Example 31, 6-Hydroxy-3-[3-methoxy-4-(1-pyrrolidinylmethyl)benzyl]-2-[4-(phenylsulfonylamino)phenyl]benzo[b]thiophene Oxalate], the melting point is 150 °C (dec.).

Regarding `COc1cc(C(=O)c2c(-c3ccc(NS(=O)(=O)c4ccccc4)cc3)sc3cc(O)ccc23)ccc1CN1CCCC1` (as salt: oxalate) [Example 32, 6-Hydroxy-2-[4-(phenylsulfonylamino)phenyl)benzo[b]thiophen-3-yl 3-Methoxy-4-(1-pyrrolidinylmethyl)phenyl Ketone Oxalate], the melting point was 180 °C (dec.).
